In brackets after ≈: the same amount, converted by molar mass.
How the values were obtained:
[1] = Single dose PK in rats; format: in vivo; details: rat
Procedure: Exposures in animals treated with ATX-inhibitors were determined from K2EDTA treated plasma by LC-MS/MS at different time points. 25 µL of plasma was used for a single concentration determination. Concentration/time profiles were analyzed with MS Excel (Microsoft Corporation, Redmond, WA, United States).
For PK experiments for 7, 13, 14, and 15, respectively, animals were treated either iv or po and exposures were determined at different time points after compound administration. Suitable formulations for 13 were, for example, NMP:Tris buffer pH 8.5 (30%/70%) for iv administration with a nominal drug concentration of 1 mg/ml (dose 2 mg/kg) and a suspension in NMP:gelatine/NaCl (10%/90%) for po administration with a nominal drug concentration of 2.5 mg/ml (dose 10 mg/kg). PK parameters in Table 2 were estimated from the concentration time profiles using Phoenix WinNonlin software (Certara, Princeton, NJ, United States).

[2] = HT-solubility assay; format: physicochemical; details: aqueous buffer, thermodynamic from solid; phosphate buffer pH 6.5
Procedure: This assay was performed on a TECAN station starting from 10 mM DMSO stock solutions of the test compounds. Two aliquots of the test compound were dried and dissolved in phosphate buffer at pH 6.5. Sonication supports optimal re-solubilization. The solutions were then filtered and diluted (3 different dilution levels for each compound) followed by quantification of the dissolved material with Rapid-Fire MS. Quantification was performed for each test compound with a 6-point calibration curve prepared with the same DMSO starting solution.

[3] = biological target: T1, LPA2 receptor (Homo sapiens, UniProt Q9HBW0); test: Off-target screen LPA2 receptor, antagonist mode; format: cell-based; details: 10 µM, single point, duplicates
T1 construct: purchased Eurofins CEREP SA

[4] = biological target: T2, ECE-1 (Homo sapiens, UniProt P42892); test: Off-target screen ECE-1; format: biochemical; details: 10 µM; single point, duplicates
T2 construct: purchased Eurofins CEREP SA

[5] = biological target: T3, ACE (Homo sapiens, UniProt P12821); test: Off-target screen ACE; format: biochemical; details: 10 µM; single point, duplicates
T3 construct: purchased Eurofins CEREP SA

[6] = biological target: T4, Androgen receptor (Homo sapiens, UniProt P10275); test: Off-target screen Androgen receptor; format: binding; details: 10 µM; single point, duplicates
T4 construct: purchased Eurofins CEREP SA

[7] = test system: HIV-1 protease; test: Off-target screen HIV-1 protease; details: 10 µM; single point, duplicates
[8] = Artificial membrane permeability assay; format: in vitro ADME; details: PAMPA, read-out: Permeability Pe
Procedure: The assay was performed in an automated fashion on 96-well microplates. The permeation of drugs was measured using a “sandwich” construction: A filter-plate was coated with phospholipids (membrane) and placed into a donor compartment containing a compound/buffer solution. Finally, the top of filter-plate was filled with buffer solution (acceptor). Donor concentration was measured at t-start (reference) and compared with the donor and acceptor concentration after a certain time (t-end) to calculate the extent of passage of the compound through the membrane. The main readout of the assay was the permeability value Pe expressed in 10^–6 * cm/s. Secondary readouts determined were the amount of compound in the donor and acceptor compartments as well as the retention in the membrane. Depending on the permeation rate and the membrane retention the compounds were classified as low (Pe < 0.2 and membrane < 20%) or medium and high (Pe ≥ 0.2 or Pe < 0.2 and membrane ≥ 20%). Each sample was measured in triplicate and a standard deviation was determined for the permeation constant Pe.

[9] = biological target: T5, 5HT2a (Homo sapiens, UniProt P28223); test: Off-target screen 5HT2a; format: binding; details: 10 µM; single point, duplicates
T5 construct: purchased Eurofins CEREP SA

[10] = test system: Sodium channel (site 2); test: Off-target screen Sodium channel (site 2); details: 10 µM; single point, duplicates
[11] = biological target: T6, PPARγ (Homo sapiens, UniProt P37231); test: Off-target screen PPARγ, antagonist mode; format: cell-based; details: 10 µM, single point, duplicates
T6 construct: purchased Eurofins CEREP SA

[12] = plasma, po, 20 mg/kg/day, food admix (FA), 20 mg/kg per day

T4 sequence (P10275 whole entry): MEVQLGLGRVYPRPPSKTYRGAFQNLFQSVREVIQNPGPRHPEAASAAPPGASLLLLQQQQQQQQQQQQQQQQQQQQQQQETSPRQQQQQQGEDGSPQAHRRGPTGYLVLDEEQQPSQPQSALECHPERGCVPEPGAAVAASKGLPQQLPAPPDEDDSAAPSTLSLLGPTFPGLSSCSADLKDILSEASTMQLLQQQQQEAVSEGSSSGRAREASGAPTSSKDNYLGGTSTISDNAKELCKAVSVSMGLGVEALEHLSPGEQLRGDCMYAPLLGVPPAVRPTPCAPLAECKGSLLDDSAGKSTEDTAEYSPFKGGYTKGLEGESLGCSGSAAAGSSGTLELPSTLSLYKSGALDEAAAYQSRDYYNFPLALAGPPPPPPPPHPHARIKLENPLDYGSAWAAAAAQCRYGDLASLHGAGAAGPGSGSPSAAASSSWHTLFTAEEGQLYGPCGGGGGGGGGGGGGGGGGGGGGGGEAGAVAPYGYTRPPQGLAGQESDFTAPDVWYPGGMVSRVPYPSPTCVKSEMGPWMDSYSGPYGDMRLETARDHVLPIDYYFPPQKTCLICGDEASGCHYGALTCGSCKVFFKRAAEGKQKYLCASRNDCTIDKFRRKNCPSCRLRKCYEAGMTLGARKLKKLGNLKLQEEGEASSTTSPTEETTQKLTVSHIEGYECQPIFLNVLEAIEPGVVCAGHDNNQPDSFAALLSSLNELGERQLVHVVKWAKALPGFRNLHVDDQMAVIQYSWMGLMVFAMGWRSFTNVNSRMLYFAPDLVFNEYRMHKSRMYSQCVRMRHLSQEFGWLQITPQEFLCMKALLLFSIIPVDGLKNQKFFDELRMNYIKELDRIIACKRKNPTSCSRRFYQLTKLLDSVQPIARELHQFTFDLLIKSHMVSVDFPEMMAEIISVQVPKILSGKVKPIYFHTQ
T3 sequence (P12821 30-1306): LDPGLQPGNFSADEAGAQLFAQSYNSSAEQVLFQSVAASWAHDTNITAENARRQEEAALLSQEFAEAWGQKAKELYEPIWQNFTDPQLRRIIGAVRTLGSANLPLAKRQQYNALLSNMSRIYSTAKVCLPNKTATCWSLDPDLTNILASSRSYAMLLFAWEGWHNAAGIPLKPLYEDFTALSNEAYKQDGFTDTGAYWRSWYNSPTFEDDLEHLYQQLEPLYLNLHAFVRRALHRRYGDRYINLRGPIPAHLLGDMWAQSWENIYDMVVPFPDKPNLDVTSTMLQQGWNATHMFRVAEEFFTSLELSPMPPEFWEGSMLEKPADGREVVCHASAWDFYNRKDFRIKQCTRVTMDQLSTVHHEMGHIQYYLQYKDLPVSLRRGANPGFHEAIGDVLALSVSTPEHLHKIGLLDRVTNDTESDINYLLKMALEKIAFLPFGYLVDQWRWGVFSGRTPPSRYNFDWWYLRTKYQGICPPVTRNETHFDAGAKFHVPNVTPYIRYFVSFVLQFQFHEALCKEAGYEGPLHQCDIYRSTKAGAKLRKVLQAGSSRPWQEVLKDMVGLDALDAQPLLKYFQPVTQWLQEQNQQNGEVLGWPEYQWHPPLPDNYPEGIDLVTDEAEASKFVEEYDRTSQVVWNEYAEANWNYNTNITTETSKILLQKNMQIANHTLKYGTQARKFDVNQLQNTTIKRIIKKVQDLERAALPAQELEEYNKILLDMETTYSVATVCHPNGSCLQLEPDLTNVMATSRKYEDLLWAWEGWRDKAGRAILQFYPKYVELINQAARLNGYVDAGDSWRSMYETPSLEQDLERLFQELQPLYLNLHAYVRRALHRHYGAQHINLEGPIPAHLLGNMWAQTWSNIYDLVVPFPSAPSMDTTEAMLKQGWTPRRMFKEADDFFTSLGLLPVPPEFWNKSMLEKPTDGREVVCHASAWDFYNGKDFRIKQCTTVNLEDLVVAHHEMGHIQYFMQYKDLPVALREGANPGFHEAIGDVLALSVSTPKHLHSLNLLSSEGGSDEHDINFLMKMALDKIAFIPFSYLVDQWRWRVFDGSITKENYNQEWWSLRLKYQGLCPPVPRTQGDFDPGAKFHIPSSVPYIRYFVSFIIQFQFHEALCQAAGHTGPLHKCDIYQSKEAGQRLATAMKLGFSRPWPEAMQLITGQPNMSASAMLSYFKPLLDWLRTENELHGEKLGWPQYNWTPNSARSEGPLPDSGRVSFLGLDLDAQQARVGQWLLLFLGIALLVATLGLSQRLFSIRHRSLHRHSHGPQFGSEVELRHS
T6 sequence (P37231 whole entry): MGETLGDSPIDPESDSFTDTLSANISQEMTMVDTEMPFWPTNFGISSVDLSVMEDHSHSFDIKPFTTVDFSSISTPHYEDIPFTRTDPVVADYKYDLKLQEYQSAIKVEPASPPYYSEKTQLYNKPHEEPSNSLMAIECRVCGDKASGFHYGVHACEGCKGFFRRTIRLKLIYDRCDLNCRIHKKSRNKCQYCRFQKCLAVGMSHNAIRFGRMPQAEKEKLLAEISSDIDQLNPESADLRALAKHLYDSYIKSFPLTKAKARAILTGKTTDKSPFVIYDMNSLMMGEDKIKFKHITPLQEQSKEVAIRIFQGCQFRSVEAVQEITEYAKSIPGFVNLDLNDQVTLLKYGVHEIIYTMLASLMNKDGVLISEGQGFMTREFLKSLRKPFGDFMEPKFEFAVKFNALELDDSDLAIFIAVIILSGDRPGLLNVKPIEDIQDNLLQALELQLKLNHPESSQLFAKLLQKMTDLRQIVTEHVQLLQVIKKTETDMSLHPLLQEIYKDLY
T2 sequence (P42892 whole entry): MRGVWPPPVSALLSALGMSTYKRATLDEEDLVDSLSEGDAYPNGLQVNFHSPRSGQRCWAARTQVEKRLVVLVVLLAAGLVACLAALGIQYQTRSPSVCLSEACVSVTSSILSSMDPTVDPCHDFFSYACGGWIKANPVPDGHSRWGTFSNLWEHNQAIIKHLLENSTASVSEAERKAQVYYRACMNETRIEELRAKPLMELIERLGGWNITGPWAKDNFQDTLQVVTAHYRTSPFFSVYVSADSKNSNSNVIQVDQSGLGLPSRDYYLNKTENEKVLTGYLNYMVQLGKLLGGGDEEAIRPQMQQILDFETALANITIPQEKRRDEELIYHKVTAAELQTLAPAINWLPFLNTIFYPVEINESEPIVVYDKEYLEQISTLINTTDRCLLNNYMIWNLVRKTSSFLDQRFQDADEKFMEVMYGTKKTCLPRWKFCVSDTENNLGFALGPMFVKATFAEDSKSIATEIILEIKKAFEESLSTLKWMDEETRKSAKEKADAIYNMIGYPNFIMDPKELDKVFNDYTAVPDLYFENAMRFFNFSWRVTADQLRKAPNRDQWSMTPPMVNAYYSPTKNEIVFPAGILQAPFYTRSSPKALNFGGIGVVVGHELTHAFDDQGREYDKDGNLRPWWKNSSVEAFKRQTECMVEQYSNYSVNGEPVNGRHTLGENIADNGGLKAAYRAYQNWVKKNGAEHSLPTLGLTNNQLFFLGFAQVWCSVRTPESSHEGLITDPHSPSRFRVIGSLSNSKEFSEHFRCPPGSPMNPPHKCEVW
T1 sequence (Q9HBW0 whole entry): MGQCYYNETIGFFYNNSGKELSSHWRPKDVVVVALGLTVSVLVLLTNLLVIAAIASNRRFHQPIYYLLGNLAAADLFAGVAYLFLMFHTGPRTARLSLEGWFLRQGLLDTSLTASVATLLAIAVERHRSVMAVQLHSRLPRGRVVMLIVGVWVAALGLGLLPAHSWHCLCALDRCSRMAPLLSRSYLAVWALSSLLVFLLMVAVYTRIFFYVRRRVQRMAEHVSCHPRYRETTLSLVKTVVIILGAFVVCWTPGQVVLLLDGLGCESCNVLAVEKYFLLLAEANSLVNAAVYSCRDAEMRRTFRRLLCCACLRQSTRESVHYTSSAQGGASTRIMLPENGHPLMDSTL
T5 sequence (P28223 whole entry): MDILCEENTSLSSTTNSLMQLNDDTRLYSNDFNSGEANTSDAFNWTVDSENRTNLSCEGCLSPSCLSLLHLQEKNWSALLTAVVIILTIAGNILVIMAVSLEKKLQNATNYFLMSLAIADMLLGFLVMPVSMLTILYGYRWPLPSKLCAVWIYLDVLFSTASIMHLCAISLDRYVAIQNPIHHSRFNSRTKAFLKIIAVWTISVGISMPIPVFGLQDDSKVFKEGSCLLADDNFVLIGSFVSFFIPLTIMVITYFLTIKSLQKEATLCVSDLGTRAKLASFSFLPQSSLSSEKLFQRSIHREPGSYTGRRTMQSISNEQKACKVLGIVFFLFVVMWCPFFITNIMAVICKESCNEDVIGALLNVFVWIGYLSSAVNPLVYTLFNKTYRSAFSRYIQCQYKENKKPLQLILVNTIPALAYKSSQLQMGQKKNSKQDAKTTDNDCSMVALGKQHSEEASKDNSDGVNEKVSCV

O=C(OCc1ccc(OC(F)(F)F)cc1)N1C[C@@H]2CN(C(=O)c3ccc4[nH]nnc4c3)C[C@H]2C1 [Compound 13, (3aS,6aS)-5-(1H-Benzotriazole-5-carbonyl)-hexahydro-pyrrolo[3,4-c]pyrrole-2-carboxylic acid 4-trifluoromethoxy-benzyl ester]
AUC(0-inf) [1, 12]: 260 µg·h/mL | Cmax [1, 12]: 2980 ng/mL | Tmax [1, 12]: 17 h | half-life [1, 12]: 13 h | AUC(0-inf) ([1]; plasma, iv bolus, 2 mg/kg): 21 µg·h/mL | half-life ([1]; plasma, iv bolus, 2 mg/kg): 2.6 h | clearance ([1]; plasma, iv bolus, 2 mg/kg, read-out: CLp): 1.6 mL/min/kg | Vd ([1]; plasma, iv bolus, 2 mg/kg, read-out: Vdss): 0.3 L/kg | AUC(0-inf) ([1]; plasma, oral gavage, 10 mg/kg): 130 µg·h/mL | Cmax ([1]; plasma, oral gavage, 10 mg/kg): 17700 ng/mL | Tmax ([1]; plasma, oral gavage, 10 mg/kg): 0.75 h | half-life ([1]; plasma, oral gavage, 10 mg/kg): 4.6 h | Oral F ([1]; food admix (FA), 20 mg/kg per day): 80% | Oral F ([1]; oral gavage, 10 mg/kg): 80% | solubility [2]: 28 µg/mL (≈ 58.9 µM) | LPA2 receptor (h), antago. mode [% inhib] [3]: 49 % inhib | ECE-1 (h) [% inhib] [4]: 16 % inhib | ACE (h) [% inhib] [5]: -25 % inhib | Androgen receptor (h) [% inhib] [6]: -1 % inhib | HIV-1 protease (h) [% inhib] [7]: 0 % inhib | Papp [8]: 4.5 ×10⁻⁶ cm/s | 5HT2a (h) [% inhib] [9]: 39 % inhib | Sodium channel (site 2) (r) [% inhib] [10]: 49 % inhib | PPARγ (h), antago. mode [% inhib] [11]: 6 % inhib

Source: article PMC8807399, “Synthesis, Characterization, and in vivo Evaluation of a Novel Potent Autotaxin-Inhibitor” (Frontiers in Pharmacology, 2022)
